Reference: patent publication US8703698B2, “Compositions and methods for treating atherosclerosis” (The University of Chicago, priority 2003, dated 2014)
Each block holds one sequence with its values, some of them ahead of it. Where no end group is shown, it is not given here. [ ]: non-standard residue; d: D form.

Tests used:
[1] = system: J774 macrophages; experiment: [3H]cholesterol efflux from cholesterol-loaded J774 macrophages in tissue culture; assay type: cell-based, mouse; settings: for cholesterol export enhancing activity, time course (FIG. 9) / cholesterol export enhancing activity relative to the human SAA1.1 78-96 containing liposomal formulation (FIG. 9): liposomal formulations, mouse J774 cells; for rate of [3H]cholesterol efflux into medium containing HDL: pre-incubation with liposomes containing 0.5 μM peptide, HDL as acceptor
[2] = system: [3H]-cholesterol-loaded J774 macrophages; experiment: In vivo cholesterol efflux to plasma in mice injected with [3H]-cholesterol-loaded J774 macrophages
Method: In these experiments, in vivo cholesterol export was determined in mice injected with J774 macrophages cholesterol-loaded with RBC membranes and [^3H]-cholesterol. Two hundred thousand macrophages in 100:1 PBS were injected into each mouse through the tail vein. At various time points thereafter, approximately 25:1 of blood were collected from the tail vein of each animal into heparinized capillary tubes. The tubes were then centrifuged for 5 minutes in an Adams Autocrit Centrifuge to separate red blood cells from plasma. Cholesterol efflux was determined by measuring the appearance of [^3H]-cholesterol in plasma by scintillation spectrometry. To study whether export of cholesterol from J774 cells to plasma was influenced by non-liposome formulated D-27mer peptide (SEQ ID NO:10), 24 hours after injection of cholesterol-loaded J774 macrophages into mice, the same animals received, by intravenous injection, 30 μg, 60 μg, 150 μg, 225 μg, 300 μg or 600 μg of D-27mer. All these amounts of D-peptides were dissolved in 100:l of phosphate buffered saline and injected through the tail vein of each animal.
Additional in vivo studies have also been conducted wherein mice were first injected intravenously with [^3H]cholesterol-laden macrophages and then injected 24 hours later with liposomes containing 0.5 μM of synthetic peptides corresponding to amino acid residues 1-20, 21-50, 51-80 or 74-103 of murine SAA2.1. Results from this study are depicted in FIG. 1. At time points indicated in the graph of FIG. 1, approximately 25 μl of blood were collected from the tail vein of each animal. The blood samples were centrifuged to separate the red blood cells from the plasma and the [^3H]-cholesterol in plasma was determined by scintillation counting. Results are mean±SEM of four determinations.
To determine cholesterol export in vivo, J774 macrophages were cholesterol-loaded with red blood cell membranes and [^3H]-cholesterol as described above. Cells were washed four times with PBS/BSA and then detached from the culture dishes. Five million cells in 200 μl DMEM were injected into control mice or inflamed mice through the tail vein. At various time points, approximately 25 μl of blood were collected from the tail vein of each animal into heparinized capillary tubes and then centrifuged for 5 minutes in an Adams Autocrit Centrifuge to separate red blood cells from plasma. Cholesterol efflux was determined by measuring the appearance of [^3H]-cholesterol in plasma by scintillation spectrometry.
J774 cells cultured in 6-well plates were enriched with cholesterol by incubating with red blood cell (RBC) membrane fragments (175:g as cholesterol) that had been previously labeled with 0.5:Ci/ml [^3H]-cholesterol at 37° C. for 24 hours in 0.2% bovine serum albumin (BSA). After loading with the labelled RBC membrane for 6 hours, cells were then washed with phosphate-buffered saline/BSA (PBS/BSA) three times followed by an 18 hour equilibration period during which monolayers were exposed to DMEM/BSA. To determine cholesterol export in vivo, J774 macrophages were cholesterol-loaded with RBC membranes and [^3H]-cholesterol as described previously above. Cells were washed four times with PBS/BSA and then detached from the culture dishes. Two hundred thousand cells in 100:l PBS were injected into mice through the tail vein. At various time points thereafter, approximately 25:l of blood were collected from the tail vein of each animal into heparinized capillary tubes. These tubes were then centrifuged for 5 minutes in an Adams Autocrit Centrifuge to separate red blood cells from plasma. Cholesterol efflux was determined by measuring the appearance of [^3H]-cholesterol in plasma by scintillation spectrometry. […]

[3] = molecular target: T1, acyl CoA:cholesterol acyl transferase (Mus musculus, UniProt Q61263); experiment: Incorporation of [14C]oleate into cholesteryl ester in cholesterol-laden macrophages (ACAT activity); assay type: cell-based, murine; settings: liposomes containing 0.5 μM synthetic peptide; 6 hour incubation; cholesterol-laden murine cells
T1 construct: host or cells: J774 mouse macrophages, cholesterol-loaded
T1 sequence (Q61263 1-540): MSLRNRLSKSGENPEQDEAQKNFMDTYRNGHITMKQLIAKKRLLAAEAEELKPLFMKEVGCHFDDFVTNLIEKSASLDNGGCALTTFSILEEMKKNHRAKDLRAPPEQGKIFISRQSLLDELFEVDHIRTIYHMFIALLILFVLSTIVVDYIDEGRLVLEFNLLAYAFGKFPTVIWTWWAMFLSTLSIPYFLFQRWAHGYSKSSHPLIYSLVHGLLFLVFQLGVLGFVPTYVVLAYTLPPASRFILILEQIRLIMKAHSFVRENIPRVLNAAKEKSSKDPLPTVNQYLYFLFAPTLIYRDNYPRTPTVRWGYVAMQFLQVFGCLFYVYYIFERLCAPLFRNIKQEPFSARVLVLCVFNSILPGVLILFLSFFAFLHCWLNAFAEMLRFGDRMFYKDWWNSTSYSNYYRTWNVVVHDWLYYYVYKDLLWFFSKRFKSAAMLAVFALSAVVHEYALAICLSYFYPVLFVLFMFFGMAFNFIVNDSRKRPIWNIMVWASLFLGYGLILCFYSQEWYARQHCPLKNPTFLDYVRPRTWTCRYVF
Method: The incorporation of [^14C]oleate into cholesteryl ester was used as a measure of acyl CoA:cholesterol acyl transferase activity to identify compositions inhibiting the enzyme activity. The relative acyl CoA:cholesterol acyl transferase activity was determined in cholesterol-laden murine cells that had been cultured in medium in the absence of liposomes or in the presence of protein-free liposomes or liposomes containing 0.5 μM synthetic peptides corresponding to amino acids 1-20, 21-50, 51-80 and 74-103 of murine SAA2.1.
To load the cells with cholesterol, nearly confluent mono-layers were washed 3 times with phosphate buffered saline containing 2 mg/mL fatty acid-free bovine serum albumin (PBS-BSA) and incubated for 5 hours in DMEM supplemented with 5% lipoprotein-depleted serum (LPDS) (d>1.25 g/mL) and 175 μg of red blood cell membrane cholesterol. For the purpose of pool equilibration of added cholesterol, cell cultures were rinsed twice with PBS-BSA and incubated overnight in DMEM containing 5% LPDS. The relative activity of acyl CoA:cholesterol acyl transferase was determined in cholesterol-laden cells that had been cultured in medium containing no liposomes, protein-free liposomes or liposomes containing 0.5:M synthetic peptides corresponding to amino acid residues 1-20 (SEQ ID NO:1), 21-50 (SEQ ID NO:2), 51-80 (SEQ ID NO:3) or 74-103 (SEQ ID NO:4) of murine SAA2.1, respectively. Following 3 hours incubation with the above media, [^14C]-oleate was added and the cells were incubated for another 3 hour period (Mendez et al. J. Clin. Invest. 1994 94:1698-1705; Oram et al. Arterioscler. Thromb. 1991 11:403-414). Cells were chilled on ice and washed twice with PBS-BSA and twice with PBS. After addition of [^3H]-cholesteryl oleate (6000 dpm/well) as an internal standard, the lipids were extracted from the labeled cells and analyzed by thin-layer chromatography as described by Mendez et al. (J. Clin. Invest. 1994 94:1698-1705) and Oram et al. (Arterioscler. Thromb. 1991 11:403-414). The radioactivity in appropriate spots was measured to determine the incorporation of radioactivity into cholesteryl esters as a measure of acyl CoA:cholesterol acyl transferase activity.

[4] = system: cholesterol ester hydrolase; experiment: Rate of hydrolysis of cholesteryl ester in cholesterol-laden J774 cells (cholesterol ester hydrolase activity); assay type: cell-based, murine; settings: liposomes containing 0.5 μl synthetic peptide; J774 cells; Sandoz 58-035 present
Method: Identification of the domain of SAA2.1 that is responsible for enhancing cholesterol ester hydrolase activity was performed in J774 cells preloaded with radio-labeled cholesteryl esters. These experiments were performed in the presence of Sandoz 58-035, an inhibitor of acyl CoA:cholesterol acyl transferase activity, to prevent re-esterification of liberated cholesterol and [^14C]oleate. Incubations proceeded for times ranging from 0 to 24 hours, following which the remaining quantities of [^14C]-labeled cholesteryl oleate in cells were measured to determine the rate of hydrolysis of cholesteryl ester. […] However, an equivalent amount of liposomes containing the synthetic peptide corresponding to amino acid residues 74-103 of murine SAA2.1 caused a 3-fold increase in cholesterol ester hydrolase activity in these cholesterol-laden murine cells. Newly confluent J774 cells were labeled with [^14C]-oleate during cholesterol loading with red blood cell membranes as described above. Cells were then incubated for up to 24 hours with 2 mL of DMEM containing 5% LPDS and 50 μg/mL of either native HDL, SAA-HDL, liposomes containing 2 μmoles of apoA-1, SAA1.1 or 2.1, or liposomes containing 0.5:mol synthetic peptides corresponding to amino acid residues 1-20 (SEQ ID NO:1), 21-50 (SEQ ID NO:2), 51-80 (SEQ ID NO:3) and 74-103 (SEQ ID NO:4) of murine SAA2.1. To determine the rate of cholesteryl ester hydrolysis, 2 μg/mL of the acyl CoA:cholesterol acyl transferase inhibitor Sandoz 58-035 (propanimide, 3-(decyldimethylsilyl)-N-[2-(4-methylphenyl)-1-phenylethyl]-(9Cl) was added during incubation with lipoproteins or liposomes to prevent […] and free cholesterol. To examine whether or not the rate of cholesteryl ester hydrolysis involved the lysosomal cholesteryl ester hydrolase, the cells were cultured in the presence of 50 μg/mL of either native HDL and chloroquine or SAA-HDL and chloroquine (100:M). Chloroquine is an agent that neutralizes the lysosomal proton gradient. At various time points, cellular lipids were extracted and analyzed for cholesteryl ester radioactivity as described above.

Sequence: QAANKWGRSGRDPNHFR [SEQ ID NO:27, residues 80-96 of human SAA2.1]
cholesterol export enhancing activity, time course (FIG. 9) [1]: little to no cholesterol export enhancing activity

Sequence: RSFFSFLGEAFDGARDMWRAYSD [SEQ ID NO:6, synthetic peptide, residues 1-23 of human SAA1.1 and/or SAA2.1]
[3H]-cholesterol efflux as plasma radioactivity (dpm) (FIG. 1) ([2]; intravenous liposomes containing 0.5 μM peptide, 24 hours after macrophages): promoted in vivo cholesterol export

relative acyl CoA:cholesterol acyl transferase activity [3]: no significant effect
Sequence: TDMKEANWKNSDKYFHARGNYDAAQRGPGG [SEQ ID NO:2, synthetic peptide, residues 21-50 of murine SAA2.1]
rate of [3H]cholesterol efflux into medium containing HDL [1]: did not cause any significant changes
rate of hydrolysis of [14C]-labeled cholesteryl oleate versus protein-free liposomes [4]: no significant differences

Sequence: ADQAANKWGRSGRDPNHFR [SEQ ID NO:11, residues 78-96 of human SAA2.1]
cholesterol export enhancing activity relative to the human SAA1.1 78-96 containing liposomal formulation (FIG. 9) [1]: about half

Sequence: DQAANKWGRSGRDPNHFR [SEQ ID NO:26, residues 79-96 of human SAA2.1]
cholesterol export enhancing activity relative to the human SAA1.1 78-96 containing liposomal formulation (FIG. 9) [1]: about half

Sequence: AANKWGRSGRDPNHFR [SEQ ID NO:28, residues 81-96 of human SAA2.1]
cholesterol export enhancing activity, time course (FIG. 9) [1]: little to no cholesterol export enhancing activity

Sequence: ADQEANRHGRSGKDPNYYRPPGLPAKY [SEQ ID NO:10] ([dA][dD][dQ][dE][dA][dN][dR][dH]G[dR][dS]G[dK][dD][dP][dN][dY][dY][dR][dP][dP]G[dL][dP][dA][dK][dY]) [residues 77-103 of murine SAA1.1, all D-amino acids]
duration of increase in cholesterol efflux (FIG. 12) ([2]; following oral and intravenous administration): at least 4 days
radiolabeled cholesterol exported in the plasma (FIG. 15) ([2]; non-liposome formulated, in 100 μl PBS, intravenous, 15 μg/mouse peptide or 75 μg/mouse full length protein): caused an increase in cholesterol exported in the plasma
[3H]-cholesterol efflux as plasma radioactivity (dpm) (FIG. 11) ([2]; non-liposome formulated, in PBS, intravenous, 30 to 600 μg per mouse): dose-dependent increase
efficacy on oral administration to fasted animals versus animals receiving food (FIG. 16) ([2]; non-liposome formulated, oral, 300 μg): further enhanced
cholesterol exported to the plasma at 24 hours, PBS containing 5% weight/volume glucose versus PBS (FIG. 13) ([2]; non-liposome formulated, oral, same dose): higher
efficacy with smaller volume vehicle containing the same amount of peptide (FIG. 16) ([2]; oral, 300 μg in 100 μl versus 500 μl PBS, fasted and fed mice): efficacy was enhanced

relative acyl CoA:cholesterol acyl transferase activity [3]: no significant effect
Sequence: VWAAEKISDGREAFQEFFGRGHEDTIADQE [SEQ ID NO:3, synthetic peptide, residues 51-80 of murine SAA2.1]
rate of [3H]cholesterol efflux into medium containing HDL [1]: did not cause any significant changes
rate of hydrolysis of [14C]-labeled cholesteryl oleate versus protein-free liposomes [4]: no significant differences
